Where a name gives a salt, the structure may show the parent alone.
Experiments:
Type in all cases: in vivo
[1] = system: eggs with diapaused embryos of Bombyx mori; assay: Termination of embryonic diapause in eggs dipped in NO donor or HCl; settings: SpermineNONOate 1 mM 30 min dip; 20% HCl 5 min 48° C.
Method: All experiments were carried out on silkmoth strain Bombyx mori J106 (Lepidoptera: Bombycidae). Larvae were maintained on an artificial diet (Yakuruto Co.) under standard conditions of 25° C., 65% relevant humidity and 16 h light ([…] et al., 2003). Egg batches were collected from a continuous insect colony and used for the experiments. […] The latter treatment is the normally used procedure to break diapause in eggs with diapaused embryos for maintenance of the insect colony of B. mori ([…] et al., 2003). In a water-control, eggs with diapaused embryos were dipped in distilled water only, and in a blank-control, eggs with diapaused were not treated. […] The numbers of eggs with diapaused embryos per treatment (n) are given with the results.

[2] = system: Bolshoye Yarovoye Artemia cysts (ARC BY 1706); assay: Post-diapause development of Bolshoye Yarovoye strain encysted Artemia embryos with NO donors
Method: Encysted embryos (cysts) from a parthenogenetic strain of Artemia obtained in winter 2005-2006 in Bolshoye Yarovoye (Altay Region: 52° 51′64″ N-78° 37′32″ E), Russia (Artemia Reference Center (ARC) code number BY 1706), were stored in the dark at 4° C. in dry sealed bags. For the experiment, the cysts were grown at 26-28° C. with constant illumination in 25 ml of sea water under varying experimental conditions as detailed below.
To quantify larval (nauplii) emergence and hatching (FIG. 1) which served as measures of cyst development, 6 samples of 250 μl from each 50 ml tube were mixed individually with 250 μl of sea water and 2 drops of Lugol's solution (Van Stappen, G, 1996) prior to counting nauplii (N) and umbrella (U) with the aid of a dissecting microscope. […] The extent of development was determined as the percent of developed cysts which was calculated as either the number of hatched larvae, or the number of hatched and emerged larvae, obtained from 100 cysts, the latter represented by the sum of hatched nauplii (larvae), emerged larvae and undeveloped cysts containing embryos.
The hatching percentage (H %) was calculated according to: […]
The hatching percentage plus (H^+%) was calculated according to: […]
The percent of developed cysts was calculated as described above.

[3] = system: resting eggs of Brachionus; assay: Brachionus resting egg hatching
Method: Resting eggs of Brachionus were suspended in 20 ml seawater (25 g/l), supplemented with different concentrations of Sin-1 Chloride (1-60 μM) and put in a falcon tube. These tubes were put on a rotor at 28° C. under constant illumination. The effect on the hatching rate was measured after 48 hr and 72 hr of incubation, by counting emerged rotifers in function of the amount of NO donor added.

Cl [20% HCl]
Number of developed neonates at day 6 [1]: 10
Number of developed neonates at day 7 [1]: 36
Number of developed neonates at day 8 [1]: 12
Number of developed neonates at day 14 [1]: 0
Number of undeveloped eggs at day 14 [1]: 14
eggs developed into neonate larvae at 6-8 days after treatment (total) [1]: 81%
percentage of developed neonates at day 14 [1]: (0%)

CC1(C)N([O])C(c2ccccc2)=[N+]([O-])C1(C)C [PTIO, 2-phenyl-4,4,5,5,-tetramethylimidazoline-1-oxyl 3-oxide]
effect of NO scavenger on cyst development promoted by NO donors ([2]; 300 μM PTIO with 0.5 μM Papa NONOate, 6.0 μM Spermine NONOate or 6.0 μM Sin-1 chloride, 48 hr): inhibited cyst development

[NH-]c1c[n+](N2CCOCC2)no1 [Sin-1 Chloride, 3-morpholine syndnonimine]
hatching after 24 hours ([2]; 40 and 60 μM, 24 hours, overcome by 48 hr): less dramatic, but obvious
concentration at which NO donor was most effective on cyst development ([2]; Bolshoye Yarovoye cysts, FIG. 2A-F): 4.0 µM
Percentage hatching of resting eggs ([3]; 1 μM, 48 hrs): 12.34% (3.62)
Percentage hatching of resting eggs ([3]; 1 μM, 72 hrs): 33.11% (2.66)
Percentage hatching of resting eggs ([3]; 6 μM, 48 hrs): 18.93% (1.25)
Percentage hatching of resting eggs ([3]; 6 μM, 72 hrs): 33.71% (0.66)
Percentage hatching of resting eggs ([3]; 10 μM, 72 hrs): 37.17% (2.88)
Percentage hatching of resting eggs ([3]; 20 μM, 48 hrs): 17.99% (3.18)
Percentage hatching of resting eggs ([3]; 20 μM, 72 hrs): 32.38% (2.63)
Percentage hatching of resting eggs ([3]; 60 μM, 48 hrs): 14.98% (3.52)
Percentage hatching of resting eggs ([3]; 60 μM, 72 hrs): 27.57% (1.00)
